Our source for the SHP2% degradation values is US20260144788A1, “COMPOUND FOR SHP2 PROTEIN DEGRADATION AND MEDICAL USES THEREOF” (UBIX THERAPEUTICS, INC., priority 2022, published 2026).

This assay concerns the target T1, SHP2 protein (Homo sapiens, UniProt Q06124).
T1 sequence (Q06124 1-593): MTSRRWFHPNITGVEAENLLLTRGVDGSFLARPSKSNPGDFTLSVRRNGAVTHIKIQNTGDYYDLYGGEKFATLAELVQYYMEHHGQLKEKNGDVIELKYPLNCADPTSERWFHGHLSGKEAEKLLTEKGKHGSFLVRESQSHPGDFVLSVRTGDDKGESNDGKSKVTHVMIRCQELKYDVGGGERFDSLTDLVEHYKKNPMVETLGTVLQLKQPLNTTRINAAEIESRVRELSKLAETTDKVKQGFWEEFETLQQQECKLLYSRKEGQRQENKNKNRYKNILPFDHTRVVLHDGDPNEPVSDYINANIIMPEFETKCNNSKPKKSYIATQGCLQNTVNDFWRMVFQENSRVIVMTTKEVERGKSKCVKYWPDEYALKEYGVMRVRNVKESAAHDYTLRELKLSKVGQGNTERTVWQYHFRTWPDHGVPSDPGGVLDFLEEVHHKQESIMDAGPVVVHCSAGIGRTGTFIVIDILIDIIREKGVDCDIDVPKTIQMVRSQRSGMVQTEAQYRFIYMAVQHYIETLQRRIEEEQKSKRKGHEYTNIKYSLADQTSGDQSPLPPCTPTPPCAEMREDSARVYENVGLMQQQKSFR
Briefly: Measurement of SHP2 protein degradation in MV-4-11 cells (western blotting). The assay is classed as cell-based. Also noted: endogenous in cells. Conditions: harvested after 24 hours. On the procedure: MV-4-11 cells were treated with the synthesized Example compounds, and the amount of SHP2 protein present in the cells was measured using western blotting detection. The protocol for the experiment conducted using MV-4-11 cells is as follows.
[Culture] MV-4-11 cells were resuspended in IMDM MEDIUM (Hyclone, SH30228.01), 5% FBS (Hyclone, SV30207.02), 1% Penicillin-streptomycin (Welgene, LS 202-02) media and seeded at 1×10^6/mL in 12-well plates (1 mL each).
[Compound treatment]12-well plates were treated as follows. 10 mM stock dissolved in DMSO was serially diluted 1/100 or 1/10 with media, and the compounds were treated to the cells at a final concentration of 0.01, 0.1, 1 μM or 0.001, 0.01, 0.1 μM, and harvested after 24 hours. For the negative control group, DMSO diluted 1/100 or 1/1000 in media was added (3 μL DMSO+297 μL media or 1 μL DMSO+999 μL media).
[Harvest] Each well was pipetted with a 1 mL pipette, collected in a 1.5 mL microtube, and centrifuged (500 g, 5 min, 4° C.). The supernatant was removed, washed with PBS, and centrifuged again (500 g, 5 min, 4° C.). The supernatant was removed and a pellet was prepared.
[Cell lysis and sample preparation] Lysis buffer was prepared as follows. RIPA buffer (Biosesang, RC2038-050-00)+0.5 mM PMSF (SIGMA, P7626)+1× Protease/Phosphatase Inhibitor (Cell signaling, 5872S) were added at 50 μL per tube and incubated on ice for 30 minutes (vortexed at 0 and 30 minutes). After sonication (10 sec pulse, 30 sec rest, 5 cycles, 70% amplification) and centrifugation (15,000 g, 15 min, 4° C.), only the supernatant was transferred to a microtube. RIPA buffer 7.5 μL and sample 2.5 μL were added to a 96-well plate to dilute to 1/4, and then BCA Protein Assay Kit (iNtRON, 21071) A and B were mixed in a 50:1 ratio and 200 μL each was added. After that, the plate was incubated at 37° C. for 30 minutes and left at room temperature for 10 minutes. After shaking for 10 seconds with a SYNERGY H1 microplate reader from BioTek, the absorbance was measured at 562 nm. The protein was quantified using the measured value to prepare a sample, which was then incubated at 70° C. for 10 minutes. The sample buffer used at this time is a mixture of NuPAGE or Bolt 4× sample buffer (Invitrogen) and each 10× sample reducing agent according to the gel to be used, and RIPA buffer was used for protein dilution.
[Western blotting detection] Equal amounts of samples were loaded onto NuPAGE or Bolt Bis-tris 4-12% gradient gels and run (200 V, 35 min). This was transferred to […] NC membranes using Trans-blot Turbo (BIO-RAD) (1.3 A constant, 25 V limit, 15 min), and was blocked at room temperature for 1 hour with Skim milk or Intercept Blocking Buffer (LI-COR, 927-60001):0.1% TBST=1:1. Anti-SHPTP2 Mouse (1:500 in 2% BSA/0.2% TBST, size: 70 kDa, Santacruz sc-7384) was incubated overnight at 4° C., and Anti-GAPDH Rabbit (1:2,000 in 2% BSA/0.2% TBST, size: 37 kDa, CST #2118) was incubated at room temperature for 1.5 hours or 3 hours. After washing three times for 5 minutes each with 0.2% TBST washing buffer, secondary antibodies Anti-Mouse IgG (1:5,000 in 2% BSA/0.2% TBST, CST) and IRDye® 680RD Goat anti-Rabbit IgG Secondary Antibody (1:10,000 in 2% BSA/0.2% TBST, LI-COR 926-68071) were added, and incubated on a rocker at room temperature for 45 minutes. The resultants were washed five times for 5 minutes each with 0.2% TBST washing buffer, and detected using LI-COR's Odyssey. GAPDH was detected with a 700 nm channel, and SHPTP2 was detected using SuperSignal West Pico PLUS Chemiluminescent Substrate.

Regarding `CC(=O)N[C@H](C(=O)N1C[C@H](O)C[C@H]1C(=O)NCc1ccc(-c2scnc2C)cc1O[C@H]1CC[C@H](C(=O)N2CC(Nc3cccc(Sc4cnc(N5CCC6(CC5)CO[C@@H](C)[C@H]6N)cn4)c3Cl)C2)CC1)C(C)(C)C` [Example 29, (2S,4R)-1-((S)-2-acetamido-3,3-dimethylbutanoyl)-N-(2-(((1r,4S)-4-(3-((3-((5-((3S,4S)-4-amino-3-methyl-2-oxa-8-azaspiro[4.5]decan-8-yl)pyrazin-2-yl)thio)-2-chlorophenyl)amino)azetidine-1-carbonyl)cyclohexyl)oxy)-4-(4-methylthiazol-5-yl)benzyl)-4-hydroxypyrrolidine-2-carboxamide], the SHP2% degradation is given as 97.2% (0.01 μM) and 99.9% (0.1 μM).

On to `Cc1ncsc1-c1ccc(CNC(=O)[C@@H]2C[C@@H](O)CN2C(=O)[C@@H](NC(=O)C2(F)CC2)C(C)(C)C)c(O[C@H]2CC[C@H](C(=O)N3CC(CNc4cccc(Sc5cnc(N6CCC(C)(CN)CC6)cn5)c4Cl)C3)CC2)c1` [Example 18, (2S,4R)—N-(2-(((1R,4S)-4-(3-(((3-((5-(4-(aminomethyl)-4-methylpiperidin-1-yl)pyrazin-2-yl)thio)-2-chlorophenyl)amino)methyl)azetidine-1-carbonyl)cyclohexyl)oxy)-4-(4-methylthiazol-5-yl)benzyl)-1-((S)-2-(1-fluorocyclopropane-1-carboxamido)-3,3-dimethylbutanoyl)-4-hydroxypyrrolidine-2-carboxamide], for which the SHP2% degradation (0.01 μM) stood at 63.2% and the SHP2% degradation (0.1 μM) is 98.4%.

With `Cc1ncsc1-c1ccc(CNC(=O)[C@@H]2C[C@@H](O)CN2C(=O)[C@@H](NC(=O)C2(F)CC2)C(C)(C)C)c(OC2CCN(C(=O)CC3CCN(c4nccc(Sc5cnc(N6CCC(C)(CN)CC6)cn5)c4Cl)CC3)CC2)c1` [Example 71, (2S,4R)—N-(2-((1-(2-(1-(4-((5-(4-(aminomethyl)-4-methylpiperidin-1-yl)pyrazin-2-yl)thio)-3-chloropyridin-2-yl)piperidin-4-yl)acetyl)piperidin-4-yl)oxy)-4-(4-methylthiazol-5-yl)benzyl)-1-((S)-2-(1-fluorocyclopropane-1-carboxamido)-3,3-dimethylbutanoyl)-4-hydroxypyrrolidine-2-carboxamide], the SHP2% degradation (0.01 μM) is on record as 60.0% and the SHP2% degradation (0.1 μM) is 99.4%.

In the case of `CC(=O)N[C@H](C(=O)N1C[C@H](O)C[C@H]1C(=O)NCc1ccc(-c2scnc2C)cc1O[C@H]1CC[C@H](C(=O)N2CC(Nc3cccc(Sc4cnc(N5CCC(C)(CN)CC5)cn4)c3Cl)C2)CC1)C(C)(C)C` [Example 27, (2S,4R)-1-((S)-2-acetamido-3,3-dimethylbutanoyl)-N-(2-(((1R,4S)-4-(3-((3-((5-(4-(aminomethyl)-4-methylpiperidin-1-yl)pyrazin-2-yl)thio)-2-chlorophenyl)amino)azetidine-1-carbonyl)cyclohexyl)oxy)-4-(4-methylthiazol-5-yl)benzyl)-4-hydroxypyrrolidine-2-carboxamide], the SHP2% degradation by setting is: (0.01 μM) 95.8%; (0.1 μM) 99.9%.

Turning to `Cc1ncsc1-c1ccc(CNC(=O)[C@@H]2C[C@@H](O)CN2C(=O)[C@@H](NC(=O)C2(F)CC2)C(C)(C)C)c(OC2CCN(C(=O)[C@H]3C[C@@H](Nc4nccc(Sc5cnc(N6CCC(C)(CN)CC6)cn5)c4Cl)C3)CC2)c1` [Example 59, (2S,4R)—N-(2-((1-((1s,3R)-3-((4-((5-(4-(aminomethyl)-4-methylpiperidin-1-yl)pyrazin-2-yl)thio)-3-chloropyridin-2-yl)amino)cyclobutanecarbonyl)piperidin-4-yl)oxy)-4-(4-methylthiazol-5-yl)benzyl)-1-((S)-2-(1-fluorocyclopropane-1-carboxamido)-3,3-dimethylbutanoyl)-4-hydroxypyrrolidine-2-carboxamide], the SHP2% degradation reads like this: (0.01 μM) 81.7%; (0.1 μM) 99.5%.

`Cc1ncsc1-c1ccc(CNC(=O)[C@@H]2C[C@@H](O)CN2C(=O)[C@@H](NC(=O)C2(F)CC2)C(C)(C)C)c(OC2CCN(C(=O)C3(F)CCN(c4nccc(Sc5cnc(N6CCC(C)(CN)CC6)cn5)c4Cl)CC3)CC2)c1` [Example 69, (2S,4R)—N-(2-((1-(1-(4-((5-(4-(aminomethyl)-4-methylpiperidin-1-yl)pyrazin-2-yl)thio)-3-chloropyridin-2-yl)-4-fluoropiperidine-4-carbonyl)piperidin-4-yl)oxy)-4-(4-methylthiazol-5-yl)benzyl)-1-((S)-2-(1-fluorocyclopropane-1-carboxamido)-3,3-dimethylbutanoyl)-4-hydroxypyrrolidine-2-carboxamide]: the SHP2% degradation is, setting by setting: (0.01 μM) 19.9%; (0.1 μM) 99.8%.

In the case of `Cc1ncsc1-c1ccc(CNC(=O)[C@@H]2C[C@@H](O)CN2C(=O)[C@@H](NC(=O)C2(F)CC2)C(C)(C)C)c(OCCN2CCN(CCNc3cccc(Sc4cnc(N5CCC(C)(CN)CC5)cn4)c3Cl)C(=O)C2)c1` [Example 3, (2S,4R)—N-(2-(2-(4-(2-((3-((5-(4-(aminomethyl)-4-methylpiperidin-1-yl)pyrazin-2-yl)thio)-2-chlorophenyl)amino)ethyl)-3-oxopiperazin-1-yl)ethoxy)-4-(4-methylthiazol-5-yl)benzyl)-1-((S)-2-(1-fluorocyclopropane-1-carboxamido)-3,3-dimethylbutanoyl)-4-hydroxypyrrolidine-2-carboxamide], the SHP2% degradation worked out at 19% (0.01 μM) and 90.3% (0.1 μM).

Turning to `Cc1ncsc1-c1ccc(CNC(=O)[C@@H]2C[C@@H](O)CN2C(=O)[C@@H](NC(=O)C2(F)CC2)C(C)(C)C)c(O[C@H]2CC[C@H](C(=O)N3CCC(Nc4nccc(Sc5cnc(N6CCC(C)(CN)CC6)cn5)c4Cl)CC3)CC2)c1` [Example 23, (2S,4R)—N-(2-(((1R,4S)-4-(4-((4-((5-(4-(aminomethyl)-4-methylpiperidin-1-yl)pyrazin-2-yl)thio)-3-chloropyridin-2-yl)amino)piperidine-1-carbonyl)cyclohexyl)oxy)-4-(4-methylthiazol-5-yl)benzyl)-1-((S)-2-(1-fluorocyclopropane-1-carboxamido)-3,3-dimethylbutanoyl)-4-hydroxypyrrolidine-2-carboxamide], the SHP2% degradation is given as 74.2% (0.01 μM) and 99.8% (0.1 μM).
